This data set has as its system HeLa cells. The data set is described as follows: MTT cytotoxicity test in HeLa cells. In kind it is cell-based. The note with it: different concentrations, FIG. 4. On the procedure:
Each of Dox and albumin-peptide-Dox at different concentrations was added to HeLa cells and then a 3-(4,5-dimethylthiazol-2-yl)-2,5-diphenyltetrazolium bromide (MTT) assay was performed to evaluate cytotoxicity.

The structures appear in SMILES notation.

On to `COc1cccc2c1C(=O)c1c(O)c3c(c(O)c1C2=O)C[C@@](O)(C(=O)CO)C[C@@H]3O[C@H]1C[C@H](N)[C@H](O)[C@H](C)O1` [Dox, doxorubicin], for which the “cytotoxicity (MTT assay)” value is “the level of cytotoxicity was increased in proportion to the concentration”.

The record behind these values is patent US20100184955A1, “ANTICANCER PRODRUG SENSITIVE TO TARGET PROTEASE” (priority 2009, published 2010).
